Source: ChEMBL document CHEMBL1201862, “PubChem BioAssay data set” (2004)
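The compound was tested at five concentrations on cells cultured in 96-well plates, with a 48-hour exposure period. Here, GI50 denotes the concentration required for 50% inhibition of growth.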 Calls of active or inactive are those of the source. Rule as the data show it: active = GI50 up to about 1.1 µM and inactive = higher.

Assays:
Assay in all cases: inhibition of tumour cell growth, NCI panel, 48 h
A549 = test system: A549
CCRF-CEM = test system: CCRF-CEM
COLO 205 = test system: COLO 205
DMS-273 = test system: DMS-273
DU-145 = test system: DU-145
HCT-116 = test system: HCT-116
HOP-62 = test system: HOP-62
IGROV-1 = test system: IGROV-1
MCF7 = test system: MCF7
MDA-N = test system: MDA-N
NCI-H23 = test system: NCI-H23
OVCAR-5 = test system: OVCAR-5
PC-3 = test system: PC-3
RPMI-8226 = test system: RPMI-8226
SF-295 = test system: SF-295
SN12C = test system: SN12C
SNB-19 = test system: SNB-19
SW-620 = test system: SW-620
T47D = test system: T47D
UACC-257 = test system: UACC-257

Compound | GI50 (A549) | GI50 (CCRF-CEM) | GI50 (COLO 205) | GI50 (DMS-273) | GI50 (DU-145) | GI50 (HCT-116) | GI50 (HOP-62) | GI50 (IGROV-1) | GI50 (MCF7) | GI50 (MDA-N) | GI50 (NCI-H23) | GI50 (OVCAR-5) | GI50 (PC-3) | GI50 (RPMI-8226) | GI50 (SF-295) | GI50 (SN12C) | GI50 (SNB-19) | GI50 (SW-620) | GI50 (T47D) | GI50 (UACC-257)
CCCCCCCCCCCCCCCCCC(=O)Nc1ccn(C2OC(CO)C(O)C2O)c(=O)n1 (stereo not given) | 2.99 µM (inactive) | 0.097 µM (active) | 61.9 µM (inactive) | 14.3 µM (inactive) | 10.7 µM (inactive) | 3.32 µM (inactive) | 2.8 µM (inactive) | 39 µM (inactive) | 2.06 µM (inactive) | > 100 µM (inactive) | 4.8 µM (inactive) | > 70.5 µM (inactive) | 4.92 µM (inactive) | 31.6 µM (inactive) | > 85.1 µM (inactive) | 26.1 µM (inactive) | 19.4 µM (inactive) | 57.1 µM (inactive) | > 100 µM (inactive) | > 100 µM (inactive)
Nc1ccc2c(c1)CN1C(=O)c3ccccc3C1=N2 [DANIQUIDONE] | 31 µM (inactive) | 10.7 µM (inactive) | 23.3 µM (inactive) | 32.4 µM (inactive) | 27.4 µM (inactive) | 16.7 µM (inactive) | 9.71 µM (inactive) | 34.2 µM (inactive) | 39.5 µM (inactive) | 49.4 µM (inactive) | 69 µM (inactive) | 64.9 µM (inactive) | 58.1 µM (inactive) | 74.6 µM (inactive) | 12.9 µM (inactive) | 33.3 µM (inactive) | 29 µM (inactive) | 24.5 µM (inactive) | 52.5 µM (inactive) | 96.6 µM (inactive)
